Test results as given in ChEMBL document CHEMBL1143863, “N(G)-aminoguanidines from primary amines and the preparation of nitric oxide synthase inhibitors” (J Med Chem, 2008).
pKd, pKi: −log10 of the molar value.

How the values were obtained:
[1] = target: T1, Nitric oxide synthase, inducible (Homo sapiens, UniProt P35228)
[2] = target: T1, Nitric oxide synthase, inducible; assay: Inhibition of full length iNOS by high-throughput oxymyoglobin assay
[3] = target: T1, Nitric oxide synthase, inducible; assay: Binding affinity to truncated iNOS construct (1-490) by spectral assay

T1 sequence (P35228 whole entry): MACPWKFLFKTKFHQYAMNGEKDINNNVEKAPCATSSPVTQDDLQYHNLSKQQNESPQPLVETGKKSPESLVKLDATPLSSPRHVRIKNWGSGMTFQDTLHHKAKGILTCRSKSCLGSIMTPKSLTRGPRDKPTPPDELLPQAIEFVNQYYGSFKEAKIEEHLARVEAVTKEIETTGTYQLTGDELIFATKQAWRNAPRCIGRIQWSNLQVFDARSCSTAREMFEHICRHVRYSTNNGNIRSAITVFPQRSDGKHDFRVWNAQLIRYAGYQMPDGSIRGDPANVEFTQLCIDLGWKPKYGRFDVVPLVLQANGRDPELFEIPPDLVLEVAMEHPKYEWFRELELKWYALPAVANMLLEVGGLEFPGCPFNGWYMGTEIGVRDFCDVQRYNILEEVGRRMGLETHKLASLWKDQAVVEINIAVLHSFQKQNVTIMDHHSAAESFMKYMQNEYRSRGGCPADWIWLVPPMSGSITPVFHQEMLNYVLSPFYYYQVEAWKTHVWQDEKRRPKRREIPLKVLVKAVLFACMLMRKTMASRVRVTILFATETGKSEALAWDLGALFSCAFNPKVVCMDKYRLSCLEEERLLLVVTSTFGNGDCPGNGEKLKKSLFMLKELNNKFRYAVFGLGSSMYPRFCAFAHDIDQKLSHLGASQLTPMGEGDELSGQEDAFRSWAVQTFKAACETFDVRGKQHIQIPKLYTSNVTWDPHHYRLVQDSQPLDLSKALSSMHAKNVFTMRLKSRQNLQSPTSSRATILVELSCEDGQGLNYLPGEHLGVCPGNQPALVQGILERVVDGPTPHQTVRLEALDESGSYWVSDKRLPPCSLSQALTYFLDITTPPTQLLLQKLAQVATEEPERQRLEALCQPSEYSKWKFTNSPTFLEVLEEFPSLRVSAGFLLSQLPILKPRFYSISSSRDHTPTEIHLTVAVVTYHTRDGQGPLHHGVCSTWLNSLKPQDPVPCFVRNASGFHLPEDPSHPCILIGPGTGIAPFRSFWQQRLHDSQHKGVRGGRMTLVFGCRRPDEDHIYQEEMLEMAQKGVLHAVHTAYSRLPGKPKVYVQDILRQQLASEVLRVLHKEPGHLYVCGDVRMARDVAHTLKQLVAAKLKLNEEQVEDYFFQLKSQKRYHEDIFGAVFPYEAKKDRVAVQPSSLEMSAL

Structure (SMILES): CN(N)/C(N)=N\CCC[C@H](N)C(=O)O
- Kinact [1]: 0.39 min⁻¹
- pKi [2]: 4.47
- pKd [3]: 5.00

Structure (SMILES): N/N=C(\N)NCCC[C@H](N)C(=O)O
- Kinact [1]: 0.18 min⁻¹
- pKi [2]: 5.66
- pKd [3]: 5.89

Structure (SMILES): N=C(N)NCCC[C@H](N)C(=O)O [ARGININE]
- pKd [3]: 5.15

Structure (SMILES): CN/N=C(\N)NCCC[C@H](N)C(=O)O
- pKi [2]: 4.79
- pKd [3]: 4.54

Structure (SMILES): N/C(=N/CCC[C@H](N)C(=O)O)N(N)CC(F)(F)F
- pKi [2]: 4.98
- pKd [3]: 4.39
